Laboratory results taken from patent US6544989B2, “Benzazoles: benzoxazole, benzthiazole and benzimidazole derivatives” (Syngenta Limited, priority 1998, dated 2003).
Several values for one entry are separate records, joined by “and”; a condition that tells them apart may be missing. Identical values can stand only once. Like-named read-outs stand apart in the source and are kept apart here. Marks after values point to notes of the source that are not given here.

Key:
[1] = tested on: Musca domestica; conditions: 500 ppm by weight; knockdown assessed 15 minutes after treatment
Method: (§1) The activities of individual compounds of formula (I) were determined using a variety of pests. With the exception of nematodes, the pests were treated with a liquid composition containing 500 parts per million (ppm) by weight of a compound unless otherwise stated. Each composition was made by dissolving the compound in an acetone and ethanol (50:50 by volume) mixture and diluting the solution with water containing 0.05% by volume of a wetting agent, SYNPERONIC NP8, until the liquid composition contained the required concentration of the compound.
The test procedure adopted with regard to each pest, except nematodes, was essentially the same and composed supporting a number of the pests on a medium which was usually a substrate, a host plant or a foodstuff on which the pests feed, and treating either or both the medium and the pests with a composition. Pest mortality was assessed usually between three and five days after treatment Knockdown of housefly (Musca domestica) was assessed 15 minutes after treatment

[2] = tested on: Phytophthora infestans lycopersici; assay type: in vivo
[3] = tested on: Uncinula necator; experiment: Fungicidal test, Uncinula necator (UNCINE) on vines, PRCO; assay type: in vivo; conditions: METHOD 2 (unbanded)
[4] = tested on: Rhizoctonia solani; experiment: Fungicidal test, Rhizoctonia solani (RHIZSO) on rice, PRCO; assay type: in vivo; conditions: METHOD 2 (unbanded)
[5] = tested on: Septoria nodorum; experiment: Fungicidal test, Septoria nodorum (LEPTNO) on wheat, PRCO; assay type: in vivo; conditions: METHOD 2 (unbanded)
[6] = tested on: Venturia inaequalis; experiment: Fungicidal test, Venturia inaequalis (VENTIN) on apples, PRCO; assay type: in vivo; conditions: METHOD 2 (unbanded)
[7] = tested on: Puccinia recondita; experiment: Fungicidal test, Puccinia recondita (PUCCRT) on wheat, PRCO; assay type: in vivo
[8] = tested on: Meloidogyne incognita; experiment: Nematode test, J2 infective juveniles of Meloidogyne incognita, mortality; conditions: 12.5 ppm; J2 infective juveniles suspended in solution; mortality after three days
Method: as §1
The test procedure for nematodes involved dissolving the compound in an acetone and ethanol (50:50 by volume) mixture and diluting the solution with water to obtain a final concentration of the compound of 12.5 ppm. J2 infective juveniles of Meloidogyne incognita were suspended in the solution in a glass vial and mortality assessed after a period of three days.

[9] = tested on: Pyricularia oryzae; assay type: in vivo; conditions: METHOD 2 (unbanded)
[10] = tested on: Erysiphe graminis f.sp. tritici; experiment: Fungicidal test, Erysiphe graminis f.sp. tritici (ERYSGT) on wheat, PRCO; assay type: in vivo; conditions: for ERYSGT 1 d Prot/Foir PRCO: METHOD 2 (unbanded); for ERYSGT 6 hr Prot/Foir PRCO: METHOD 1 (values marked *)
[11] = tested on: Plasmopara viticola; experiment: Fungicidal test, Plasmopara viticola (PLASVI) on vines, PRCO; assay type: in vivo
[12] = tested on: Botrytis cinerea; experiment: Fungicidal test, Botrytis cinerea (BOTRCI) on tomatoes, PRCO; assay type: in vivo; conditions: METHOD 2 (unbanded)

Compound | MUSCDO AC = Musca domestica (knockdown), score [1] | PHYTIN 1 d Prot/Foir PRCO ([2]; METHOD 2 (unbanded)) | UNCINE 1 d Prot/Foir PRCO [3] | RHIZSO 1 d Prot/Foir PRCO [4] | LEPTNO 1 d Prot/Foir PRCO [5] | VENTIN 1 d Prot/Foir PRCO [6] | PUCCRT 1 d Prot/Foir PRCO ([7]; METHOD 2 (unbanded)) | MELGIN = Meloidogyne incognita, grading of mortality (score) [8] | PYRIOR 1 d Prot/Foir PRCO [9] | ERYSGT 1 d Prot/Foir PRCO [10] | PLASVI 1 d Prot/Foir PRCO ([11]; METHOD 2 (unbanded)) | BOTRCI 1 d Prot/Foir PRCO [12] | PHYTIN 1 d Prot/Foir PRCO ([2]; METHOD 1 (values marked *)) | PUCCRT 1 d Prot/Foir PRCO ([7]; METHOD 1 (values marked *)) | ERYSGT 6 hr Prot/Foir PRCO [10] | PLASVI 1 d Prot/Foir PRCO ([11]; METHOD 1 (values marked *))
Cc1nsc(NC(=O)Cc2ccc3oc(SC(C)C)nc3c2)c1Cl [223(A3)] | 0 (0 indicates less than 40% mortality) | 93 | 30 | 0 | 12 | 60 | 99 | 0 (0 indicates less than 40% mortality) | 63 | 73 | 55 | – | – | – | – | –
Cc1nsc(NC(=O)Cc2ccc3oc(CCc4ccccc4)nc3c2)c1Cl [247(A3)] | 0 (0 indicates less than 40% mortality) | 97 | 95 | 0 | 13 | −11 | 95 | 0 (0 indicates less than 40% mortality) | 85 | 61 | 62 | – | – | – | – | –
CCC(C)c1nc2cc(CC(=O)Nc3snc(C)c3Cl)ccc2o1 (stereo not drawn) [10(A3)] | 5 (5 indicates 40-79% mortality) | 100 | 96 | 0 | 28 | 40 | 100 | 0 (0 indicates less than 40% mortality) | 77 | 98 | 87 | – | – | – | – | –
Cc1nsc(NC(=O)Cc2ccc3oc(-c4cc(Cl)cc(Cl)c4)nc3c2)c1Cl [261(A3)] | 0 (0 indicates less than 40% mortality) | 0 | 17 | 0 | −7 | 0 | 3 | 0 (0 indicates less than 40% mortality) | 31 | 19 | 25 | – | – | – | – | –
CCCc1nc2cc(CC(=O)Nc3snc(C)c3Cl)ccc2o1 [4(A3)] | 9 (9 indicates 80-100% mortality) | – | – | – | 50 | – | – | 9 (9 indicates 80-100% mortality) | 90 and 81 | – | 34 | 49 | 100* | 100* | 100* | –
Cc1nsc(NC(=O)Cc2ccc3oc(SC(C)(C)C)nc3c2)c1Cl [224(A3)] | 0 (0 indicates less than 40% mortality) | 100 | 91 | 0 | 16 | 60 | 98 | 0 (0 indicates less than 40% mortality) | 91 | 88 | 99 | – | – | – | – | –
CC(C)=Cc1nc2cc(CC(=O)Nc3snc(C)c3Cl)ccc2o1 [46(A3)] | 5 (5 indicates 40-79% mortality) | – | 100 | 0 | 88 | 84 | 100 | 0 (0 indicates less than 40% mortality) | 92 | 97 | 99 | – | – | – | – | –
Cc1nsc(N(C)C(=O)Cc2ccc3oc(CC(C)(C)C)nc3c2)c1Cl [15(B3)] | 0 (0 indicates less than 40% mortality) | 99 | 100 | 29 | −2 | 5 | 15 | 0 (0 indicates less than 40% mortality) | 69 | 75 | 79 | – | – | – | – | –
Cc1nc2cc(CC(=O)Nc3snc(C)c3Cl)ccc2o1 [2(A3)] | 0 (0 indicates less than 40% mortality) | – | – | – | 21 | 97 | – | 5 (5 indicates 40-79% mortality) | 47 and 92 | – | – | 0 | 100* | 100* | 100* | 0*
CCC(CC)c1nc2cc(CC(=O)Nc3snc(C)c3Cl)ccc2o1 [13(A3)] | 9 (9 indicates 80-100% mortality) | 93 | 100 | 19 | 58 | 53 | 100 | 0 (0 indicates less than 40% mortality) | 96 | 100 | 100 | – | – | – | – | –
CCSc1nc2cc(CC(=O)Nc3snc(C)c3Cl)ccc2o1 [221(A3)] | 9 (9 indicates 80-100% mortality) | 99 | 23 | 0 | 20 | 25 | 99 | 0 (0 indicates less than 40% mortality) | 93 | 50 | 84 | – | – | – | – | –
Cc1nsc(NC(=O)Cc2ccc3oc(-c4ccc(C(C)(C)C)cc4)nc3c2)c1Cl [252(A3)] | 0 (0 indicates less than 40% mortality) | – | 79 | 0 | −13 | −47 | 97 | 0 (0 indicates less than 40% mortality) | 46 | 30 | 38 | – | – | – | – | –
Cc1nsc(NC(=O)Cc2ccc3oc(CC(C)C)nc3c2)c1Cl [14(A3)] | 9 (9 indicates 80-100% mortality) | 100 | 98 | 12 | 28 | 10 | 97 | 0 (0 indicates less than 40% mortality) | 90 | 90 | 89 | – | – | – | – | –
